From US10774390B2, “Methods and compositions for modulating PrfA mediated virulence gene activation in Listeria spp” (The Regents of the University of California, priority 2015, dated 2020)

Assays:
PrfA = PrfA activation in L. monocytogenes strains expressing TagRFP from the actA promoter, grown in media with or without reducing agents; assay type: cell-based, Listeria monocytogenes; conditions: for activation of PrfA in vitro: L. monocytogenes grown in chemically defined media, excess of exogenously added reducing agent; for Optimal concentration for prfA activation: reducing agent added to chemically defined media (Table 1); for induction of ActA (FIG. 1): chemically defined media, fluorescent reporter driven by actA promoter
Description: Experiments were conducted to identify any additional factors required for PrfA activation.
Three different strains were employed: WT 10403S (Lauer et al., J. Bacteriol. (2002) 184:4177-4186; ΔprfA which was an in frame deletion in prfA made by allelic exchange; and PrfA* which has a G145S mutation. The strains were engineered to express TagRFP from the actA promoter (e.g., as reported in Waite et al., PLoS Pathog. (2011)7:e1001326. A chemically defined media detailed in Table 1 was prepared.
Next, a number of reducing agents listed in Table 2 were added to the media.
The three strains were grown in the chemically defined media with or without the addition of the noted reducing agents.

Listeria monocytogenes = assay: Virulence of strains grown with or without reducing agent: bacterial burdens in organs of intravenously infected mice; assay type: in vivo, CD-1 mice
Description: FIG. 2. In this experiment bacteria were grown in rich media (BHI) or Listeria synthetic media (LSM) with or without reducing agent (TCEP) and injected into mice IV. The data are CFUs at […] in liver and spleens. WT bacteria and a PrfA* strain that has constitutively active PrfA were used.
Prior to infection, bacterial strains were grown to stationary phase overnight in Listeria Synthetic Media (LSM) at 37° C., then diluted into either BHI or LSM, with or without reducing agent (2 mM TCEP) and grown at 37° C. with shaking until the OD600 was approximately 0.5. Cultures were re-suspended in 1× phosphate-buffered saline (PBS) and used to intravenously infect female CD-1 mice between 6 and 8 weeks of age with a final inoculum of 10^5 bacteria. At 48 hrs post-infection, mice were sacrificed and organs collected. Bacterial burdens were enumerated by plating organ homogenates on LB plates and incubating overnight.
WT bacteria and a PrfA* strain that has constitutively active PrfA were used.

O[C@H](CS)[C@H](O)CS (racemic) [dithiothreitol (DTT), dithiothreitol]
activation of PrfA in vitro (PrfA): recapitulated | Optimal concentration for prfA activation (PrfA): 2 mM

OCCS [2-mercaptoethanol (BME), 2-mercaptoethanol]
activation of PrfA in vitro (PrfA): recapitulated | Optimal concentration for prfA activation (PrfA): 2 mM

N[C@@H](CCC(=O)N[C@@H](CS)C(=O)NCC(=O)O)C(=O)O [Glutathione (reduced), Glutathione]
activation of PrfA in vitro (PrfA): sufficient to stimulate activation of PrfA | induction of ActA (FIG. 1) (PrfA): induction of ActA | PrfA activation (PrfA; exogenous glutathione, standard complex broth culture): insufficient to stimulate PrfA activation | Optimal concentration for prfA activation (PrfA): 10 mM

N[C@@H](CS)C(=O)O [L-Cysteine]
induction of ActA (FIG. 1) (PrfA): induction of ActA | Optimal concentration for prfA activation (PrfA): 10 mM

O=C(O)CCP(CCC(=O)O)CCC(=O)O [tris(2-carboxyethyl)phosphine (TCEP), tris(2-carboxyethyl)phosphine]
activation of PrfA in vitro (PrfA): recapitulated | induction of ActA (FIG. 1) (PrfA): induction of ActA | Optimal concentration for prfA activation (PrfA): 2 mM | bacteria in the organs (CFU, liver and spleen), fold more (Listeria monocytogenes; bacteria grown in LSM plus 2 mM TCEP, IV, 10^5 bacteria, 48 hrs post-infection): around 50 fold | activation of PrfA-dependent expression, measured by virulence (Listeria monocytogenes; defined medium and TCEP, compared with PrfA* strain): equivalent to that of a PrfA-constituitive mutant
